Tested on: enterotoxins
Type: binding, Staphylococcus aureus

`CCCCCCCCN` [n-octylamine] was tested, and the “adsorptive affinity for enterotoxins” value was “phenomenal increase in the adsorptive affinity for enterotoxins”.

— patent publication US6969616B2 (Kaneka Corporation, priority 2000, dated 2005)
